Measurements reported in PubChem BioAssay (NCI).
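Compound exposure: 48 hours, 5 concentrations, 96-well plates. TGI marks complete inhibition of growth.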

Tests used:
Assay in all cases: growth of human tumour cells (NCI), 48 h
786-0 renal = tested on: 786-0 renal
BT-549 breast = tested on: BT-549 breast
CAKI-1 renal = tested on: CAKI-1 renal
EKVX NSCLC = tested on: EKVX NSCLC
HT29 colon = tested on: HT29 colon
KM12 colon = tested on: KM12 colon
NCI/ADR-RES ovarian = tested on: NCI/ADR-RES ovarian
OVCAR-5 ovarian = tested on: OVCAR-5 ovarian
SK-MEL-2 melanoma = tested on: SK-MEL-2 melanoma
SK-MEL-28 melanoma = tested on: SK-MEL-28 melanoma
SK-MEL-5 melanoma = tested on: SK-MEL-5 melanoma
SK-OV-3 ovarian = tested on: SK-OV-3 ovarian
SNB-19 CNS = tested on: SNB-19 CNS
SNB-75 CNS = tested on: SNB-75 CNS
HL-60(TB) leukemia = tested on: HL-60(TB) leukemia
MOLT-4 leukemia = tested on: MOLT-4 leukemia

| Compound | TGI (786-0 renal) [µM] | TGI (BT-549 breast) [µM] | TGI (CAKI-1 renal) [µM] | TGI (EKVX NSCLC) [µM] | TGI (HT29 colon) [µM] | TGI (KM12 colon) [µM] | TGI (NCI/ADR-RES ovarian) [µM] | TGI (OVCAR-5 ovarian) [µM] | TGI (SK-MEL-2 melanoma) [µM] | TGI (SK-MEL-28 melanoma) [µM] | TGI (SK-MEL-5 melanoma) [µM] | TGI (SK-OV-3 ovarian) [µM] | TGI (SNB-19 CNS) [µM] | TGI (SNB-75 CNS) [µM] | TGI (HL-60(TB) leukemia) [µM] | TGI (MOLT-4 leukemia) [µM] |
| --- | --- | --- | --- | --- | --- | --- | --- | --- | --- | --- | --- | --- | --- | --- | --- | --- |
| CC(=O)Oc1cc2c(cc1OC(C)=O)[C@H]1CC[C@]3(C)[C@@H](OC(C)=O)CC[C@H]3[C@@H]1CC2 | 18.9 | 11.2 | 12.5 | 9.64 | 19.3 | 23.4 | 29.5 | 24.2 | 16.1 | 19.7 | 20.4 | 21.7 | 21.7 | 4.42 | – | – |
| COP1(=O)Oc2ccccc2C(=O)C(C(F)(F)F)(C(F)(F)F)O1 (stereo unspecified) | > 100 | – | > 100 | > 100 | > 100 | > 100 | – | > 100 | > 100 | > 100 | > 100 | > 100 | > 100 | > 100 | > 100 | > 100 |
| N#CC(c1cc2c(cc1Br)OCO2)N1CCOCC1 (stereo unspecified) | > 100 | – | > 100 | > 100 | > 100 | > 100 | > 100 | > 100 | – | > 100 | > 100 | > 100 | > 100 | 99.6 | 25.7 | > 100 |
| N/N=C1/CCCc2nonc21 | > 100 | – | > 100 | > 100 | > 100 | > 100 | > 100 | > 100 | > 100 | > 100 | > 100 | > 100 | – | – | > 100 | > 100 |
| COc1ccc(O)c(C=NCCCN=Cc2cc(OC)ccc2O)c1 | > 100 | > 100 | – | 83 | > 100 | 64.6 | – | > 100 | > 100 | > 100 | – | – | > 100 | 64.7 | 28.5 | > 100 |
| CC(NC(=O)OC(C)(C)C)C(=O)C(N)=O (stereo unspecified) | > 100 | – | – | > 100 | – | – | > 100 | > 100 | > 100 | > 100 | > 100 | > 100 | > 100 | > 100 | > 100 | > 100 |
| Cc1n[nH]c(=O)n1/N=C/c1c[nH]c2ccccc12 | > 100 | > 100 | > 100 | > 100 | – | > 100 | > 100 | > 100 | > 100 | > 100 | – | > 100 | > 100 | > 100 | – | > 100 |
| COc1cccc(/C=C2\CCCCCC2=O)c1 | > 100 | > 100 | > 100 | > 100 | > 100 | > 100 | – | > 100 | > 100 | > 100 | > 100 | > 100 | > 100 | > 100 | – | > 100 |
| CC(CO)C1=CC(C#CCOCc2ccccc2)N(C(=O)Oc2ccccc2)c2ccccc21 (stereo unspecified) | > 100 | – | 76.1 | 73 | > 100 | 82.9 | 63.3 | > 100 | > 100 | > 100 | 74.5 | > 100 | > 100 | > 100 | > 100 | > 100 |
| CCCCn1c2c(n(CCCC)c1=S)-c1c(n(CCCC)c(=S)n1CCCC)SSSS2 | 19.4 | 28.1 | – | 23.2 | 7.91 | > 33.1 | 71.5 | 1.66 | 6.8 | 31.6 | 8.95 | > 100 | > 100 | 37.7 | – | > 36.2 |
| CCOP(=O)(C=C=C(C)C)OCC | > 100 | – | > 100 | > 100 | > 100 | > 100 | > 100 | > 100 | > 100 | > 100 | > 100 | > 100 | > 100 | > 100 | > 100 | – |
| COC(=O)CCn1cnc2c(SC)ncnc21 | > 100 | – | > 100 | > 100 | > 100 | > 100 | > 100 | > 100 | – | > 100 | > 100 | > 100 | > 100 | > 100 | > 100 | > 100 |
| CCN(CC)CCCNc1nc2ccccc2c2[nH]c3ccc(OC)cc3c12 | 2.41 | – | 8.25 | 3.31 | 2.05 | 2.03 | 2.92 | 3.18 | 3.16 | 3.11 | 3.12 | > 10 | 4.25 | 3.35 | 3.02 | 1.69 |
| COC(=O)C(Cc1ccccc1)OC(=O)C(N)CC(=O)O (stereo unspecified) | > 100 | > 100 | > 100 | > 100 | > 100 | – | > 100 | > 100 | > 100 | > 100 | > 100 | > 100 | > 100 | > 100 | – | > 100 |
| CC(C)NCC(O)c1ccc(OCc2ccccc2)c(OCc2ccccc2)c1-c1ccccc1 (stereo unspecified) | 3.25 | – | 3.18 | 32.3 | 3.04 | – | 3.73 | 3.16 | 4.18 | – | 2.5 | 3.16 | 4.07 | 2.54 | – | 4.55 |
| CN(/N=C/C=N/N(C)C1=NCCCCN1)C1=NCCCCN1 | > 100 | > 100 | > 100 | > 100 | > 100 | – | > 100 | > 100 | – | > 100 | > 100 | > 100 | > 100 | > 100 | – | > 100 |
| CCOC(=O)NC(NC(C)CC)(C(F)(F)F)C(F)(F)F (stereo unspecified) | > 100 | – | > 100 | > 100 | > 100 | > 100 | > 100 | > 100 | > 100 | > 100 | > 100 | – | > 100 | > 100 | > 100 | > 100 |
